In brackets after ≈: the same amount, converted by molar mass.
settings: buffer; pH 7.4; 200.0 µM

Row | SMILES | solubility kinetic
1 | CCOC(=O)CNC(=O)c1ccc(SCC)cc1 | > 40.1 µg/mL
2 | CC1CN(C(=S)Nc2cccc(Cl)c2)CC(C)O1 (stereo not given) | > 42.7 µg/mL
3 | O=S(=O)(c1ccc(-c2ccon2)s1)N1CCN(c2ccccn2)CC1 | 1.1 µg/mL (≈ 2.92 µM)
4 | COc1cc(C(NC(C)=O)NC(C)=O)ccc1OCc1ccccc1 | > 51.4 µg/mL
5 | Cc1cc(C)c2nc(C)cc(Nc3ccc(C(=O)NCCO)cc3)c2c1 | 35.5 µg/mL (≈ 102 µM)
6 | C(=N\N1CCN(c2ccccn2)CC1)/c1ccccn1 | > 40.1 µg/mL
7 | COc1ccc(CNC(=O)c2ccc[nH]2)cc1Cl | > 39.7 µg/mL
8 | CNc1ccc(S(=O)(=O)NC)cc1[N+](=O)[O-] | > 36.8 µg/mL
9 | O=C(O)CNC(=O)c1ccc(N2CCOCC2)cc1[N+](=O)[O-] | > 46.4 µg/mL
10 | Cc1cccnc1NC(=S)NCc1ccco1 | 31.4 µg/mL (≈ 127 µM)
11 | COCCNC(=O)/C(C#N)=C/c1ccc(C(=O)O)cc1 | > 41.1 µg/mL
12 | COc1ccc(/C=C/C(=O)N2CCCc3ccccc32)c(OC)c1 | 6.7 µg/mL (≈ 20.7 µM)
13 | O=C(COC(=O)c1ccc2c(c1)OCO2)Nc1ccccc1 | 4.5 µg/mL (≈ 15 µM)
14 | OCCCNc1ncnc2scc(-c3ccc(Cl)cc3)c12 | > 48 µg/mL
15 | Cc1cccc(N(C)S(=O)(=O)c2csc(C(N)=O)c2)c1 | > 46.6 µg/mL
16 | COc1cccc(C(C)NC(=O)Nc2cc(Cl)ccc2OC)c1 (stereo not given) | < 0.4 µg/mL
17 | CC(=O)C(Sc1ncnc2sc3c(c12)CCCC3)C(C)=O | 38.6 µg/mL (≈ 120 µM)
18 | Cl.NCCOc1ccccc1OCCN | > 40.4 µg/mL
19 | CCCNC(=O)N1CCCC(C(N)=O)C1 (stereo not given) | > 32 µg/mL
20 | COC(=O)c1cc(OC)c(OC)cc1N1C(=O)CCCC1=O | > 46.1 µg/mL
21 | O=C(c1cnc2sccn2c1=O)N1CCN(c2ccccc2Cl)CC1 | 54.4 µg/mL (≈ 145 µM)
22 | CN(C(=O)CSc1nc2scc(-c3ccccc3)c2c(=O)[nH]1)c1ccccc1 | 11.2 µg/mL (≈ 27.5 µM)
23 | O=C(CCSCc1ccc(Cl)cc1)NCc1cccnc1 | 48 µg/mL (≈ 150 µM)
24 | COc1ccccc1C(=O)CSc1cccc[n+]1[O-] | 14.4 µg/mL (≈ 52.3 µM)

Row | SMILES | solubility kinetic
25 | COc1cccc(-c2noc(CCC(=O)NC3CCCC3)n2)c1 | > 47.3 µg/mL
26 | O=C(Nc1ccc(N2CCN(c3ccccc3)CC2)c(F)c1)C1CC1 | < 0.2 µg/mL
27 | CC(=O)Nc1ccc(SC(C)C(=O)NC2CCCC2)cc1 (stereo not given) | > 46 µg/mL
28 | O=CN1CCN(C(=O)c2cc3cc(Cl)ccc3[nH]2)CC1 | 34.9 µg/mL (≈ 120 µM)
29 | CC1CN(C)C(C)C/C1=N/Oc1ccccc1[N+](=O)[O-].Cl (stereo not given) | 46.2 µg/mL
30 | CCC(=O)Nc1ccc(Cl)c(-c2nc3ncccc3o2)c1 | > 45.3 µg/mL
31 | CCc1c(C#N)c(=O)[nH]c(=O)n1-c1ccccc1 | > 36.2 µg/mL
32 | CC1CCC(NC(=O)C2COc3ccccc3O2)CC1 (stereo not given) | 5.5 µg/mL (≈ 20 µM)
33 | OC(CN1CCCC(C(F)(F)F)C1)c1ccccc1 (stereo not given) | 31.1 µg/mL (≈ 114 µM)
34 | N/C(=N\OC(=O)Nc1ccccc1)c1ccno1 | 24.2 µg/mL (≈ 98.3 µM)
35 | Cc1cc(N/C=C/C(=O)c2cccs2)ccc1F | 1.7 µg/mL (≈ 6.51 µM)
36 | Cc1cc(NC(=O)c2ccc(F)cc2)ccc1NC(=O)c1ccco1 | 3.4 µg/mL (≈ 10 µM)
37 | Cc1ccc(C(=O)Nc2ncccc2C)o1 | > 32.4 µg/mL
38 | CN(CC(=O)Nc1cccc(F)c1)C(=O)CC1CC2CCC1C2 (stereo not given) | 4 µg/mL (≈ 12.6 µM)
39 | O=C(CN(Cc1ccco1)C(=O)c1ccc(F)cc1)Nc1ccccc1Br | > 64.7 µg/mL
40 | Cc1cccc(Nc2nc(C)cc(C)c2C#N)c1 | 0.8 µg/mL (≈ 3.37 µM)
41 | CCCc1ccc(OCc2ccc(C(=O)N3CCCC3)o2)cc1 | 5.9 µg/mL (≈ 18.8 µM)
42 | Cc1ccc(OCC(=O)Nc2cc(C)on2)c([N+](=O)[O-])n1 | 18 µg/mL (≈ 61.6 µM)
43 | CN1CCN(C(=O)OC2c3nccnc3C(=O)N2c2ccc(Cl)cn2)CC1 (stereo not given) | > 58.3 µg/mL
44 | CC(C)S(=O)(=O)C/C(N)=N/OC(=O)c1cc(Cl)cc(Cl)c1 | 34.5 µg/mL (≈ 97.7 µM)
45 | COc1ccccc1NC(=O)Nc1nc2ccc(S(N)(=O)=O)cc2s1 | 1.6 µg/mL (≈ 4.23 µM)
46 | O=C(CSc1nnc(NC(=O)c2c(F)cccc2F)s1)NC1CC1 | > 55.6 µg/mL
47 | CCOC(=O)NC(=O)CSc1ccc(S(=O)(=O)N2CCCCC2)cn1 | > 58.1 µg/mL
48 | CC(=O)Nc1nc2ccc(S(=O)(=O)N3CCCC3)cc2s1 | 3.1 µg/mL (≈ 9.53 µM)

Row | SMILES | solubility kinetic
49 | COc1ccccc1/C=C/C(=O)OCC(=O)NC1CCCCCCC1 | 7.4 µg/mL (≈ 21.4 µM)
50 | Cc1cccc(NC(=O)CNC(=O)c2cccc(-n3cccc3)c2)c1C | 8.6 µg/mL (≈ 24.8 µM)
51 | O=C(CCl)N(C1CCCC1)C1CCS(=O)(=O)C1 (stereo not given) | > 42 µg/mL
52 | Cc1cc(C)c2sc(N(CCN(C)C)C(=O)c3ccc4ccccc4c3)nc2c1.Cl | 6.7 µg/mL
53 | COc1ccc(NS(=O)(=O)c2ccc(C(=O)N(C)Cc3ccc(C)o3)cc2)cc1 | 61.1 µg/mL (≈ 147 µM)
54 | COc1ccc(CCNC(=O)COC(=O)C2CC2)cc1 | 25.4 µg/mL (≈ 91.6 µM)
55 | Cc1ccc(NC(=O)COC(=O)c2cc(=O)c3ccccc3o2)c(Br)c1 | > 62.4 µg/mL
56 | Cc1ccccc1C(=O)OCC(=O)NCc1ccco1 | > 41 µg/mL
57 | Cc1ccc(NC(=O)CN2C(=O)N/C(=C\c3cccnc3)C2=O)cc1 | 5.2 µg/mL (≈ 15.5 µM)
58 | O=C(Nc1sc2c(c1C(=O)O)CCCC2)c1ccc(F)cc1 | 41.2 µg/mL (≈ 129 µM)
59 | CCC(NC(=S)NC1CCCCC1)c1ccc(C)cc1 (stereo not given) | 5.3 µg/mL (≈ 18.2 µM)
60 | COc1ccc(CCNC(=S)N(C)C)cc1OC | > 40.3 µg/mL
61 | Cc1nc2ccccn2c1-c1ccnc(=S)[nH]1 | 31.8 µg/mL (≈ 131 µM)
62 | Cc1cnc(NC(=O)c2ccc3ncsc3c2)s1 | 3.5 µg/mL (≈ 12.7 µM)
63 | Cc1nc2ccc(NC(=S)N3CCCC3)cc2nc1C | 41.7 µg/mL (≈ 146 µM)
64 | Cc1ccc(OCc2ccccc2Br)c([N+](=O)[O-])n1 | 1.7 µg/mL (≈ 5.26 µM)
65 | COc1ccc(S(=O)(=O)NC2CC3CCC2C3)cc1 (stereo not given) | 36.5 µg/mL (≈ 130 µM)
66 | CC1(C)CC2CC(C)(CN2Cc2cccc([N+](=O)[O-])c2)C1 (stereo not given) | 5.2 µg/mL (≈ 18 µM)
67 | CC(CCc1ccccc1)NC(=O)CCC(=O)N1CCC(C(N)=O)CC1 (stereo not given) | 48.7 µg/mL (≈ 135 µM)
68 | O=C(O)/C=C/C(=O)Nc1ccc(-n2nccc2C(F)(F)F)cc1 | > 48.8 µg/mL
69 | O=C(Cn1cc([N+](=O)[O-])ccc1=O)NCc1ccc(Cl)cc1Cl | 1.9 µg/mL (≈ 5.33 µM)
70 | N#CC(C#N)=C(N)Nc1cccc(Cl)c1 | 30.7 µg/mL (≈ 140 µM)
71 | CC(=O)c1ccc(NC(=O)N2C[C@H]3C[C@@H](C2)c2cccc(=O)n2C3)cc1 | > 52.7 µg/mL
72 | CCCn1c(S(=O)(=O)O)nc2ccccc21 | > 36 µg/mL

Row | SMILES | solubility kinetic
73 | CCOC(=O)N1CCN(c2ccnc3cc(Cl)ccc23)CC1 | 43.9 µg/mL (≈ 137 µM)
74 | O=C(CNc1cccc(S(=O)(=O)N2CCCC2)c1)Nc1cccc(C(F)(F)F)c1 | 21.1 µg/mL (≈ 49.4 µM)
75 | Cc1cc2c(NCCc3ccccc3)ncnc2s1.Cl | 8.7 µg/mL
76 | Cc1cccc(OCCSc2nc(N)cc(N)n2)c1 | > 41.5 µg/mL
77 | COc1ccc(NC(=O)Nc2cc(C(C)(C)C)on2)cc1OC | > 47.9 µg/mL
78 | COc1c(C)cc(C(=O)C2CCCN(C(=O)c3cc4nc(C)cc(C)n4n3)C2)cc1C (stereo not given) | > 63.1 µg/mL
79 | O=C(O)C1CCN(S(=O)(=O)c2cccs2)CC1 | > 41.3 µg/mL
80 | O=C(CSC(=S)N1CCOCC1)c1cc2ccccc2oc1=O | 7.4 µg/mL (≈ 21.2 µM)
81 | Cc1ccc(NS(=O)(=O)c2ccc(NC(=O)c3ccccc3C(=O)O)cc2)c(C)c1 | > 63.7 µg/mL
82 | Cc1ccc(C(=O)N2CCc3ccccc32)cc1[N+](=O)[O-] | < 0.3 µg/mL
83 | Cc1ccc(C(=O)NCC(=O)NCCCc2ccccc2)s1 | 24.9 µg/mL (≈ 78.7 µM)
84 | O=S(=O)(NC1C2CC3CC(C2)CC1C3)c1ccc(F)cc1 (stereo not given) | 23 µg/mL (≈ 74.3 µM)
85 | CN(C)/C=C1\SC(=S)N(c2ccc(F)cc2)C1=O | 12.6 µg/mL (≈ 44.6 µM)
86 | CC1CC(C)CN(CC(O)COCc2ccccc2F)C1.Cl (stereo not given) | > 49.8 µg/mL
87 | CCOc1ccccc1C(=O)NC1CCN(Cc2ccccc2)CC1 | 36.8 µg/mL (≈ 109 µM)
88 | COc1ccc(CCNC(=O)C2CC2)cc1 | 32.4 µg/mL (≈ 148 µM)
89 | CC12CCC(=O)N1C(C(=O)Nc1ccccc1F)CS2 (stereo not given) | > 44.2 µg/mL
90 | Cc1sc2ncnc(SCC(=O)N(C(C)C)C(C)C)c2c1C | 1.6 µg/mL (≈ 4.74 µM)
91 | CCOC(=O)C1=C(C)NC(C)=C(C(=O)OCC)C1C(=O)OCC(=O)N1CCOCC1 | > 63.7 µg/mL
92 | Cc1nc(N2CCNCC2)c2c3c(sc2n1)CCCC3 | 26.7 µg/mL (≈ 92.6 µM)
93 | Cc1cc(=O)[nH]c(Nc2ccc(Cl)cc2)n1 | > 35.4 µg/mL
94 | CC(C)c1ccc(C(=O)NCCCN2CCOCC2)cc1 | > 43.6 µg/mL
95 | c1ccc2[nH]c(CCCc3nc4ccccc4[nH]3)nc2c1 | 29.7 µg/mL (≈ 107 µM)
96 | O=C(Oc1ccccc1)N1CCN(c2ccccc2F)CC1 | 39.5 µg/mL (≈ 132 µM)

Row | SMILES | solubility kinetic
97 | Cc1ccnc(NC(=O)CNC(=O)c2ccco2)c1 | > 38.9 µg/mL
98 | Cc1nc(C)c(-c2ccnc(/N=C/NO)n2)s1 | 34 µg/mL (≈ 136 µM)
99 | CC(=O)Nc1ccccc1C(=O)C(=O)NCCc1ccccc1 | 40.5 µg/mL (≈ 130 µM)
100 | CC(NC(=O)c1cc(F)c(F)cc1Cl)c1ccncc1 (stereo not given) | > 44.5 µg/mL
101 | CCCC(C)NC(=O)c1ccccc1SC (stereo not given) | 34.1 µg/mL (≈ 144 µM)
102 | O=c1onc(-c2ccc(Cl)cc2Cl)n1-c1cccnc1 | 19.5 µg/mL (≈ 63.3 µM)
103 | Cc1ccc(NC(=O)CN(C)C(=O)C2COc3ccccc3O2)cc1 (stereo not given) | 47.4 µg/mL (≈ 139 µM)
104 | CC(C)C(CCNC1CCN(C)CC1)c1ccc(Cl)cc1 (stereo not given) | 33.5 µg/mL (≈ 108 µM)
105 | CCOC(=O)c1cc(-c2csc(-c3ccc(C(F)(F)F)cc3)n2)on1 | < 0.4 µg/mL
106 | O=C(/C=C/c1ccc(F)cc1)NC(=S)Nc1ccccc1 | 1.3 µg/mL (≈ 4.33 µM)
107 | O=C(Nc1ccc2ccccc2n1)Nc1cccs1 | < 0.2 µg/mL
108 | O=C(COC(=O)CNC(=O)C1CCCCC1)Nc1cccc(F)c1 | > 50.5 µg/mL
109 | CC1CCCC(C)N1C(=O)COC(=O)CNC(=O)c1ccccc1F (stereo not given) | > 52.6 µg/mL
110 | COc1ccc(CN2C(=O)c3cccc4cccc(c34)C2=O)cc1 | 0.9 µg/mL (≈ 2.84 µM)
111 | CC1Sc2ccc(C(=O)NCc3ccccn3)cc2NC1=O (stereo not given) | 45.6 µg/mL (≈ 146 µM)
112 | O=C(NC1C2CC3CC(C2)CC1C3)c1ccc(Br)o1 (stereo not given) | 27.8 µg/mL (≈ 85.7 µM)
113 | COc1ccc(OC)c(C(O)c2nc3ccccc3n2C)c1 (stereo not given) | > 44.8 µg/mL
114 | COc1cccc(Nc2nc(N)nc(CCl)n2)c1 | > 39.9 µg/mL
115 | O=C(CCCc1ccccc1)Nc1nccs1 | 28.5 µg/mL (≈ 116 µM)
116 | Cc1ccc(NC(=O)NC2CCCc3ccccc32)cc1 (stereo not given) | < 0.3 µg/mL
117 | Cc1cc(C)c(C)c(S(=O)(=O)N2CCC(C(=O)OCC(=O)NC3CCS(=O)(=O)C3)CC2)c1C (stereo not given) | > 75.1 µg/mL
118 | CCN(CC)S(=O)(=O)c1ccc(NCCc2ccccn2)nc1 | 49.2 µg/mL (≈ 147 µM)
119 | COc1ccc(S(=O)(=O)NCCc2ccco2)cc1OC | > 46.7 µg/mL
120 | CCCOC(=O)Nc1cc(OC)ccc1[N+](=O)[O-] | 5.7 µg/mL (≈ 22.4 µM)
